Data set [1] has as its system U-373 glioma cells. Put plainly: Sensitization of U-373 glioma cells expressing CE to APC. The class given is cell-based, human. The note with it: 2 h exposure. The protocol: FIG. 7 is a linegraph showing a comparison of the sensitization, depicted as % survival on the Y-axis, of U-373 glioma cells exposed to APC, depicted as log[APC] at concentrations from 10^−8 to 10^−5 M on the X-axis, from in situ expression of rabbit liver CE (filled squares) and human alveolar macrophage CE (filled circles). Cells were exposed for 2 hours to APC.
(§1) No known human enzyme activates APC. […] Thus, the combination of APC and sensitization of selected tumor cells with rabbit liver CE as described above can be used to produce a tumor-specific cell death while greatly minimizing the toxic side effects associated with administration of chemotherapy.

Data set [2] concerns the target T1, rabbit liver CE (Oryctolagus cuniculus, UniProt P12337).
T1 sequence (P12337 19-565): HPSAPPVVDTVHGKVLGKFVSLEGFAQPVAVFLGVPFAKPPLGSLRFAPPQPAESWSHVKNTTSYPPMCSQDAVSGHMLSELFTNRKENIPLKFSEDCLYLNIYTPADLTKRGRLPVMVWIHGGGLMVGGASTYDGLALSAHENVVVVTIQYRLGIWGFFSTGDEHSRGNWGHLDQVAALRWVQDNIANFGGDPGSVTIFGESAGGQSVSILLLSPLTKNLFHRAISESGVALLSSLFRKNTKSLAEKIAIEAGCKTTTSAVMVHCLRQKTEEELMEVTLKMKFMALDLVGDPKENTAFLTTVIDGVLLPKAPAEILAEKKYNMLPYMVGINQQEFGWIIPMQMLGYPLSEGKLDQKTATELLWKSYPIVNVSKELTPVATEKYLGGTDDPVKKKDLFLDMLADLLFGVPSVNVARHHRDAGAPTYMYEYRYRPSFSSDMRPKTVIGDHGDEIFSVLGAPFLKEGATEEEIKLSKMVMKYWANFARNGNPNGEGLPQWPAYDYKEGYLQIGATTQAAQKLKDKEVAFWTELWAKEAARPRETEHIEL
In words: In vitro conversion of APC to SN-38 by rabbit liver CE. Format: biochemical. The note with it: FIG. 6.
Source text: FIG. 6 is a linegraph showing the conversion of APC, depicted on the X-axis at nanomolar concentrations, to SN-38, depicted on the Y-axis at nanomolar concentrations, in vitro by the activity of rabbit liver CE given at doses of 0 (filled cross), 10 (filled hexagon), 25 (filled triangle), 50 (filled circle) or 100 (filled square) units. Data presented represent the mean response at each dose level.
as §1

Data set [3] concerns U373 glioblastoma xenografts. In words: U373 glioblastoma xenografts in SCID mice treated with CPT-11. The class given is in vivo. The note with it: 7.5 mg/kg/day, three cycles. The text has this: The tumor growth rate is depicted on the Y-axis in terms of tumor volume and is plotted as a function of time in weeks (X-axis). Open circles depict the tumor volume of untreated U373 xenografts expressing rabbit CE. Filled triangles depict the response of control xenografts (no rabbit CE) treated with CPT-11. Filled squares depict the response of cells expressing rabbit CE and treated with CPT-11. […] Each point represents the mean of 14 tumors in 7 individual mice.
Similar studies were performed employing U373 glioblastoma cells transfected with the pIRESneo plasmid or with pIRESneo containing the cDNA for rabbit liver CE and selected with G418. Expression of CE in the tumor cells was confirmed by biochemical assay using the substrate o-NPA. Cells were injected subcutaneously into the flanks of the SCID mice.

In data set [4] the test system is Rh30 cells. Put plainly: Growth inhibition of Rh30 cells by CPT-11 pre-incubated with rabbit liver CE. The note with it: 1 to 5 units of CE inactivated by heating; 1 h exposure. The class given is cell-based, human. The text has this:
Another aspect of the present invention relates to the ability of compositions of the present invention comprising a polynucleotide encoding a carboxylesterase and a disease-specific responsive promoter of selected tumor cells to sensitize the tumor cells to a chemotherapeutic prodrug. The ability of the combination of a rabbit CE of the present invention and CPT-11 to sensitize human tumor cells to CPT-11 was examined. Experiments were first performed to confirm that the metabolite produced by the activity of a CE of the present invention is biologically active in vitro. Rh30 cells were then exposed to the products of each reaction for one hour and the percentage of growth inhibition was determined.
Each reaction mixture was then filter-sterilized and Rh30 cells were exposed to drug for one hour, at which time the medium was replaced with drug-free medium containing serum. […] Cells were allowed to grow for 3 cell doubling times and cell numbers were determined.

For data set [5] the following is noted: patients; cited from earlier work.
For data set [6], the system named is human NB-1691 xenografts. Put plainly: NB-1691 xenograft model for MRD. The class given is in vivo, mice. The note with it: 10 mg/kg CPT-11 daily for 5 days on two consecutive weeks. The text has this:
However, within 4–6 weeks, tumors are palpable in the exact position where the original xenograft was implanted. Since these tumors arise from cells that survived the initial cycle of chemotherapy, this model therefore mimics results seen in patients following surgical resection of the primary tumor and subsequent regrowth at the same site.

The subject of data set [7] is CEs purified from human tissues. The note with it: human CE; cited from earlier work.
The test system of data set [8] is Rh30 rhabdosarcoma xenografts. Put plainly: Rh30 and Rh30pIRESrabbit xenografts in SCID mice treated with CPT-11. Format: in vivo. To be noted: for tumor response: 2.5 mg CPT-11/kg/day, three cycles. The protocol:
The tumor growth rate is depicted on the Y-axis of each graph in terms of tumor volume and is plotted as a function of time in weeks (X-axis).
In this preclinical model, expression of the transfected cDNA for rabbit CE was maintained for at least 12 weeks.
Experiments were performed in this model to compare the responses of mice bearing human Rh30 and Rh30pIRESrabbit xenografts. Rh30 rhabdosarcoma xenografts were transfected with pIRESneo plasmid containing the cDNA for rabbit liver CE and selected with G418. Expression of CE was confirmed by biochemical assay using the CE substrate o-NPA and maintained for at least 12 weeks. Two groups of SCID mice were then injected with the transfected Rh30pIRESrabbit cells subcutaneously into the flanks. A third group of control mice was injected in identical fashion with Rh30 cells not transfected with the plasmid.

Data set [9] deals with Rh18 RMS xenografts. To be noted: cited from earlier work.
In data set [10] the test system is Rh30 rhabdomyosarcoma cells. In words: Growth inhibition by CPT-11 of Rh30 cells stably transfected with pIRES or rabbit CE cDNA. The class given is cell-based. The note with it: Homo sapiens, Rh30, 2 h, 2 h exposure. The protocol:
The in vitro activity of rabbit liver CE was examined in tumor cell lines. […] Optimized conditions for electroporation were achieved using 180 V and 960 uF. […] Cells were grown for a minimum of 10 days before use in growth inhibition experiments. […] Drug was added to tissue culture medium of each of the stably transfected cell lines for two hours, after which time the medium was replaced with drug-free medium. Cells were then allowed to grow for 3 cell doublings as before.

Data set [11] has as its target T1, rabbit liver CE. Put plainly: Metabolism of CPT-11 by commercially available rabbit liver CE, rapid fluorometric assay. Format: biochemical. To be noted: partially purified commercial rabbit liver CE. The text has this: (§2) The commercially available pig CE contained several proteins. […] Therefore, the rabbit proteins were chosen for further study.
Data set [12] has as its system pig liver CE. In words: Metabolism of CPT-11 by commercially available pig liver CE, rapid fluorometric assay. The class given is biochemical. The note with it: partially purified commercial pig liver CE.
Source text: as §2

The target in data set [13] is T2, topoisomerase I (Homo sapiens, UniProt P11387).
T2 sequence (P11387 1-765): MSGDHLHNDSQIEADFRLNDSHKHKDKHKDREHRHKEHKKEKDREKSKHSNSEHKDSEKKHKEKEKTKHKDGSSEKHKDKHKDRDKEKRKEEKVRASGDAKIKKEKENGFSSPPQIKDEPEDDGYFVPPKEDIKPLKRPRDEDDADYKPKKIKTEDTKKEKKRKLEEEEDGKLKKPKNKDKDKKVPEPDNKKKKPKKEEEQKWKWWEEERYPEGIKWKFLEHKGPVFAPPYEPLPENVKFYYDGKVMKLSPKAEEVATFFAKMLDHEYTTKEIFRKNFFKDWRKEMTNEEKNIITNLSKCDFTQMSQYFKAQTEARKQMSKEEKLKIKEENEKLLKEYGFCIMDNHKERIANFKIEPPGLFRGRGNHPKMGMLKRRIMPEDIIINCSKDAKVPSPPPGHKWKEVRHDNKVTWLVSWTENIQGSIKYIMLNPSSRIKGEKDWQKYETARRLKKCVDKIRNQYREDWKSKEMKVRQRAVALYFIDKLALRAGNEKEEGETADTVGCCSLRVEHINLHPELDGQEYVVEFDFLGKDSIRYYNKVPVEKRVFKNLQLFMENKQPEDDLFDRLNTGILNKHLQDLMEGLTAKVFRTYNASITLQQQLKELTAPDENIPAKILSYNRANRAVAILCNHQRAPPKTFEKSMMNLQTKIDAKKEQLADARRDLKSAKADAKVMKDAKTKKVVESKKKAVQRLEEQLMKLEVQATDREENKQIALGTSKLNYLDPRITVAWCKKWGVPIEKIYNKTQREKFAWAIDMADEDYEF
The note with it: cited from earlier work.

The mark [14] stands for this setting: tumors not expressing CE (Rh30).

Usually IC50 stands for the concentration that gives 50% inhibition.

Entries after “also recorded” stand apart in the source; their conditions may differ. Like-named read-outs stand apart in the source and are kept apart here.

Take `CCc1c2c(nc3ccc(OC(=O)N4CCC(NCCCCC(=O)O)CC4)cc13)-c1cc3c(c(=O)n1C2)COC(=O)[C@]3(O)CC` [APC]: the entries for the “sensitization to growth inhibitory effects of APC” value in data set [1] (U-373 cells expressing human alveolar macrophage CE) and in data set [1] (U-373 cells expressing rabbit liver CE) were “not” and “sensitized”, respectively. Also, the “conversion of APC to SN-38” value in data set [2] is listed as “converted to SN-38 in a concentration-dependent manner”.
Regarding `CCc1c2c(nc3ccc(OC(=O)N4CCC(N5CCCCC5)CC4)cc13)-c1cc3c(c(=O)n1C2)COC(=O)[C@]3(O)CC` [CPT-11, 7-ethyl-10-[4-(1-piperidino)-1-piperidino]carbonyloxycamptothecin], the tumor response entry is “stable disease but no significant regression; also recorded: stable disease with no significant regression” in data set [3] (xenografts from cells transfected with control plasmid (no rabbit CE)); “tumor regression was seen only in treated cells expressing rabbit CE; also recorded: regressed completely” in data set [3] (xenografts from cells transfected with plasmid encoding rabbit CE); “complete regression” in [6]; “complete tumor regression; also recorded: regressed completely and did not regrow” in data set [8] (tumors expressing rabbit CE (Rh30pIRESrabbit), 5 days/week for 2 weeks, 12 weeks); “initial regression but regrowth; also recorded: regressed only transiently” in data set [8] (setting [14]); “only partial tumor regression” in [9] (10 mg/kg/day, same schedule). The tumor response result in [9] (20 mg of CPT-11/kg/day daily for 5 days for two weeks) is “complete regressions”. Moreover, the “inhibition of cell growth” value in data set [4] is on record as “no inhibition of cell growth”. Also, the dose-limiting toxicities entry in data set [5] was “myelosuppression and secretory diarrhea”. The “time until tumors are palpable again at the original site” value in [6] was 4–6 weeks. For the same compound, in [7], the “prodrug converted to active drug SN-38” value is given as “less than 5%”. Further, in data set [8] (setting [14]), the “time to regrowth after CPT-11 treatment stopped” value is on record as “within one week”. Also, the IC50 in [10] (read-out: IC50 of CPT-11, Rh30pIRES cells (no CE cDNA)) was 4330 nM; in data set [10] (read-out: IC50 of CPT-11, Rh30pIRESrabbit cells (rabbit CE cDNA)), 576 nM. In addition, the “metabolism of CPT-11” value in data set [11] and in [12] was “metabolized CPT-11 efficiently” in each case.
`CCc1c2c(nc3ccc(O)cc13)-c1cc3c(c(=O)n1C2)COC(=O)[C@]3(O)CC` [SN-38, 7-ethyl-10-hydroxy-camptothecin]: in data set [13], the “inhibition of topoisomerase I” value is listed as “potent inhibitor”.

Values taken from patent publication US7018631B1, “Compositions and methods for sensitizing and inhibiting growth of human tumor cells” (St. Jude Children's Research Hospital, priority 1998, dated 2006).
